Experiment: Solid-state storage stability of the crystalline form
Assay type: physicochemical

stability of crystalline form on storage (3 months at 2-8° C.): stable
stability of crystalline form on storage (3 months at 25° C./60% RH): stable
stability of crystalline form on storage (3 months at 40° C./75% RH): stable
Structure (SMILES): CC#CC(=O)N1CCC[C@H]1c1nc(-c2ccc(C(=O)Nc3ccccn3)cc2)c2c(N)nccn12 [form RSV3, acalabrutinib]

Reference: US10717740B2, “Solid forms of acalabrutinib and process for preparation thereof” (DR. REDDY'S LABORATORIES LIMITED, priority 2017, dated 2020)
